Values joined by “and” are separate entries in the source; they are usually repeats but may differ in a detail not shown here. Equal entries are not always repeated.

Test [1] concerns KB (human mouth epidermal carcinoma) cell line. Description: MTT cytotoxicity assay, KB cells. Particulars: for IC50: Homo sapiens, KB, 72 h, read-out: IC50, KB; for Selective index, KB: ratio IC50 in Hek-293 to IC50 in KB.
Test [2] deals with Hek-293 (human embryonic kidney 293) cell line. The experiment in a line: MTT cytotoxicity assay, normal Hek-293 cells. Particulars: HEK293, 72 h, read-out: IC50, Hek-293.
In test [3] the test system is MCF7 (human breast adenocarcinoma) cell line. The experiment in a line: MTT cytotoxicity assay, MCF7 cells. As to conditions: for IC50: Homo sapiens, MCF7, 72 h, read-out: IC50, MCF7; for Selective index, MCF7: ratio IC50 in Hek-293 to IC50 in MCF7.
The subject of test [4] is KB, A549, and HepG2 cell lines. The experiment in a line: MTT cytotoxicity assay, summary over KB, A549 and HepG2. Particulars: Homo sapiens, read-out: IC50 values ranging over KB, A549, and HepG2 cell lines.
The subject of test [5] is HepG2 (human hepatocellular carcinoma) cell line. The experiment in a line: MTT cytotoxicity assay, HepG2 cells. Particulars: for IC50: Homo sapiens, HepG2, 72 h, read-out: IC50, HepG2; for Selective index, HepG2: ratio IC50 in Hek-293 to IC50 in HepG2.
Test [6] concerns A549 (human lung adenocarcinoma) cell line. Description: MTT cytotoxicity assay, A549 cells. Particulars: for IC50: Homo sapiens, A549, 72 h, read-out: IC50, A549; for Selective index, A549: ratio IC50 in Hek-293 to IC50 in A549.

On to `COc1cc(C2C3=C(COC3=O)NC3=C2C(=O)c2ccccc2C3=O)ccn1` (stereo not drawn) [Compound 13k, 11-(2-Methoxypyridin-4-yl)-4,11-dihydrobenzo[g]furo[3,4-b]quinolin-1,5,10(3H)-trione], for which the IC50 in test [1] was 0.27 ± 0.24 µM; in test [2], 2.48 ± 0.32 µM; in test [3], 1.34 ± 0.16 µM; in test [4] it was 230 to 270 nM; in test [5] it was 0.23 ± 0.02 µM; in test [6], 270 ± 210 nM. Also, the “Selective index, KB” value in test [1] is 9.30. Besides, the “Selective index, MCF7” value in test [3] stood at 1.86. In addition, the “Selective index, HepG2” value in test [5] is reported as 10.81. Further, the “Selective index, A549” value in test [6] is 9.30.

With `O=C1OCC2=C1C(c1ccoc1)C1=C(N2)C(=O)c2ccccc2C1=O` (stereo not drawn) [Compound 13b, 11-(Furan-3-yl)-4,11-dihydrobenzo[g]furo[3,4-b]quinolin-1,5,10(3H)-trione], in test [1], the IC50 is 10.1 ± 1.17 µM and the “Selective index, KB” value is on record as 1.37. Moreover, the IC50 in test [2] was 13.8 ± 1.41 µM. In addition, in test [3], the IC50 amounted to 12.6 ± 1.14 µM and the “Selective index, MCF7” value turned out to be 1.09. Besides, in test [5], the IC50 came to 12.4 ± 1.29 µM and the “Selective index, HepG2” value came to 1.12. Besides, in test [6], the IC50 is 3090 ± 390 nM and the “Selective index, A549” value was determined as 4.47.

For the compound `O=C1OCC2=C1C(c1ccco1)C1=C(N2)C(=O)c2ccccc2C1=O` (stereo not drawn) [Compound 13c, 11-(Furan-2-yl)-4,11-dihydrobenzo[g]furo[3,4-b]quinolin-1,5,10(3H)-trione], in test [1], the IC50 worked out at 14.2 ± 1.23 µM and the “Selective index, KB” value stood at 1.02. In test [2], the IC50 was determined as 14.6 ± 1.35 µM. In test [3], the 50% inhibitory concentration (IC50) was determined as 12.2 ± 1.14 µM and the “Selective index, MCF7” value came to 1.20. For the same compound, in test [5], the IC50 was 3.75 ± 0.69 µM and the “Selective index, HepG2” value is listed as 3.88. In test [6], the IC50 is 3060 ± 270 nM and the “Selective index, A549” value turned out to be 4.75.

Regarding `O=C1OCC2=C1C(c1ncccc1F)C1=C(N2)C(=O)c2ccccc2C1=O` (stereo not drawn) [Compound 13l, 11-(3-Fluoropyridin-2-yl)-4,11-dihydrobenzo[g]furo[3,4-b]quinolin-1,5,10(3H)-trione], in test [1], the IC50 is 4.69 ± 0.58 µM and the “Selective index, KB” value came to 2.18. Moreover, the IC50 in test [2] is 10.2 ± 1.24 µM. Also, in test [3], the IC50 is 7.34 ± 0.94 µM and the “Selective index, MCF7” value is listed as 1.39. Besides, in test [5], the IC50 was 5.52 ± 0.86 µM and the “Selective index, HepG2” value was determined as 1.85. In addition, in test [6], the IC50 turned out to be 2150 ± 250 nM and the “Selective index, A549” value was determined as 4.74.

For the compound `O=C1OCC2=C1C(c1cc3ccccc3s1)C1=C(N2)C(=O)c2ccccc2C1=O` (stereo not drawn) [Compound 13g, 11-(Benzo[b]thiophen-2-yl)-4,11-dihydrobenzo[g]furo[3,4-b]quinolin-1,5,10(3H)-trione], in test [1], the concentration for half-maximal inhibition (IC50) came to 9.94 ± 0.65 µM and the “Selective index, KB” value came to 1.31. The IC50 in test [2] stood at 13.1 ± 1.7 µM. In test [3], the IC50 amounted to 11.3 ± 1.78 µM and the “Selective index, MCF7” value is 1.16. In addition, in test [5], the IC50 turned out to be 12.7 ± 1.4 µM and the “Selective index, HepG2” value is 1.03. Also, in test [6], the IC50 came out at 3130 ± 200 nM and the “Selective index, A549” value is on record as 4.18.

`O=C1OCC2=C1C(c1cnc(Cl)s1)C1=C(N2)C(=O)c2ccccc2C1=O` (stereo not drawn) [Compound 13h, 11-(2-Chlorothiazol-5-yl)-4,11-dihydrobenzo[g]furo[3,4-b]quinolin-1,5,10(3H)-trione]: in test [1], the IC50 stood at 1.12 ± 0.1 µM and the “Selective index, KB” value was 1.23. For the same compound, the IC50 in test [2] came out at 1.38 ± 0.18 µM. In addition, in test [3], the IC50 is 1.07 ± 0.1 µM and the “Selective index, MCF7” value is on record as 1.29. Further, in test [5], the IC50 was determined as 0.81 ± 0.11 µM and the “Selective index, HepG2” value is on record as 1.71. For the same compound, in test [6], the IC50 worked out at 160 ± 20 nM and the “Selective index, A549” value came out at 8.55.

As to `Cc1c(C2C3=C(COC3=O)NC3=C2C(=O)c2ccccc2C3=O)cnn1C` (stereo not drawn) [Compound 13i, 11-(1,5-Dimethyl-1H-pyrazol-4-yl)-4,11-dihydrobenzo[g]furo[3,4-b]quinolin-1,5,10(3H)-trione], the IC50 in test [1] was 10.7 ± 1.27 µM; in test [2], 12.3 ± 1.13 µM; in test [3], 10.4 ± 0.8 µM; in test [5], 7.8 ± 0.53 µM; in test [6] it was 2270 ± 220 nM. Further, in test [1], the “Selective index, KB” value is reported as 1.14. Besides, the “Selective index, MCF7” value in test [3] worked out at 1.18. The “Selective index, HepG2” value in test [5] was 1.57. Also, in test [6], the “Selective index, A549” value came to 5.40.

For the compound `O=C1OCC2=C1C(c1ccc(Br)o1)C1=C(N2)C(=O)c2ccccc2C1=O` (stereo not drawn) [Compound 13d, 11-(5-Bromofuran-2-yl)-4,11-dihydrobenzo[g]furo[3,4-b]quinolin-1,5,10(3H)-trione], the IC50 in test [1] was found to be 2.81 ± 0.32 µM; in test [2] it was 37.1 ± 3.3 µM; in test [3], 10.4 ± 1.29 µM; in test [5] it was 0.3 ± 0.06 µM; in test [6] it was 2060 ± 220 nM. The “Selective index, KB” value in test [1] was 13.19. The “Selective index, MCF7” value in test [3] stood at 3.58. Besides, the “Selective index, HepG2” value in test [5] was 122 and 122.40. For the same compound, the “Selective index, A549” value in test [6] was 18.00.

As to `O=C1OCC2=C1C(c1coc3ccccc13)C1=C(N2)C(=O)c2ccccc2C1=O` (stereo not drawn) [Compound 13f, 11-(Benzofuran-3-yl)-4,11-dihydrobenzo[g]furo[3,4-b]quinolin-1,5,10(3H)-trione], in test [1], the “fold higher toxicity when compared with ellipticine, KB” value is reported as about 1.8 fold; the IC50 was 1.1 ± 0.09 µM; the “Selective index, KB” value is recorded as 17.98. Moreover, in test [2], the 50% inhibitory concentration (IC50) was determined as 19.7 ± 1.7 µM. In addition, in test [3], the IC50 was 12.7 ± 1.2 µM and the “Selective index, MCF7” value was 1.56. Moreover, in test [5], the “fold higher toxicity when compared with ellipticine, HepG2” value was about 1.8 fold; the IC50 worked out at 1.3 ± 0.13 µM; the “Selective index, HepG2” value worked out at 15.10. In test [6], the IC50 came out at 7020 ± 910 nM and the “Selective index, A549” value is 2.81.

Regarding `Cc1c2ccncc2c(C)c2c1[nH]c1ccccc12` [Ellipticine, ellipticine, reference compound], in test [1], the IC50 was found to be 1.95 ± 0.12 µM and the “Selective index, KB” value came to 2.88. Further, in test [2], the IC50 amounted to 5.6 ± 0.37 µM. Moreover, in test [3], the half-maximal inhibitory concentration (IC50) is 2.09 ± 0.16 µM and the “Selective index, MCF7” value is reported as 2.68. Also, in test [5], the concentration for half-maximal inhibition (IC50) was 2.11 ± 0.16 µM and the “Selective index, HepG2” value worked out at 2.65. Besides, in test [6], the IC50 worked out at 1420 ± 80 nM and the “Selective index, A549” value is reported as 3.94.

With `COc1ncc(C(F)(F)F)cc1C1C2=C(COC2=O)NC2=C1C(=O)c1ccccc1C2=O` (stereo not drawn) [Compound 13m, 11-(2-Methoxy-5-(trifluoromethyl)pyridin-3-yl)-4,11-dihydrobenzo[g]furo[3,4-b]quinolin-1,5,10(3H)-trione], the IC50 in test [1] is 4.63 ± 1.04 µM; in test [2], 16.7 ± 1.94 µM; in test [3], 7.26 ± 1.29 µM; in test [5], 5.83 ± 0.86 µM; in test [6], 2830 ± 540 nM. In addition, the “Selective index, KB” value in test [1] came out at 3.61. The “Selective index, MCF7” value in test [3] amounted to 2.31. In test [5], the “Selective index, HepG2” value is recorded as 2.87. For the same compound, the “Selective index, A549” value in test [6] amounted to 5.92.

With `O=C1OCC2=C1C(c1csc3ccccc13)C1=C(N2)C(=O)c2ccccc2C1=O` (stereo not drawn) [Compound 13e, 11-(Benzo[b]thiophen-3-yl)-4,11-dihydrobenzo[g]furo[3,4-b]quinolin-1,5,10(3H)-trione], in test [1], the IC50 was determined as 10.9 ± 1.4 µM and the “Selective index, KB” value is given as 1.02. For the same compound, the IC50 in test [2] worked out at 11.2 ± 0.85 µM. Moreover, in test [3], the IC50 turned out to be 13.1 ± 1.6 µM and the “Selective index, MCF7” value was 0.85. Also, in test [5], the half-inhibitory concentration (IC50) was 10.4 ± 1.18 µM and the “Selective index, HepG2” value was found to be 1.07. In test [6], the concentration for half-maximal inhibition (IC50) turned out to be 9940 ± 730 nM and the “Selective index, A549” value came out at 1.12.

As for `O=C1OCC2=C1C(c1ccn[nH]1)C1=C(N2)C(=O)c2ccccc2C1=O` (stereo not drawn) [Compound 13j, 11-(1H-pyrazol-5-yl)-4,11-dihydrobenzo[g]furo[3,4-b]quinolin-1,5,10(3H)-trione], the IC50 in test [1] turned out to be 6 ± 0.63 µM; in test [2], 3.75 ± 0.69 µM; in test [3], 3.24 ± 0.36 µM; in test [5] it was 4.35 ± 0.57 µM; in test [6], 5430 ± 390 nM. Further, the “Selective index, KB” value in test [1] worked out at 0.63. In addition, the “Selective index, MCF7” value in test [3] is listed as 1.16. The “Selective index, HepG2” value in test [5] was 0.86. Further, in test [6], the “Selective index, A549” value is 0.69.

As to `O=C1OCC2=C1C(c1ccsc1)C1=C(N2)C(=O)c2ccccc2C1=O` (stereo not drawn) [Compound 13a, 11-(Thiophen-3-yl)-4,11-dihydrobenzo[g]furo[3,4-b]quinolin-1,5,10(3H)-trione], in test [1], the IC50 was 1.43 ± 0.14 µM and the “Selective index, KB” value is listed as 16.00. The IC50 in test [2] is 22.9 ± 2.18 µM. Also, in test [3], the IC50 amounted to 2.06 ± 0.66 µM and the “Selective index, MCF7” value was 11.12. In addition, in test [5], the IC50 amounted to 1.43 ± 0.15 µM and the “Selective index, HepG2” value came to 16.00. For the same compound, in test [6], the IC50 came out at 480 ± 30 nM and the “Selective index, A549” value is listed as 47.90.

Values taken from article PMC10772362 (RSC Advances, 2024).
